Assay results as given in ChEMBL document CHEMBL1157450, “Potent and selective small-molecule human urotensin-II antagonists with improved pharmacokinetic profiles” (Bioorg Med Chem Lett, 2008).
Calls of active or inactive are those of the source. No cut-off for these calls is given here.

Legend:
[1] = target: Kappa-type opioid receptor (Homo sapiens, UniProt P41145); assay: Agonist activity at kappa opioid receptor; type: functional
Urotensin-2 receptor = target: T1, Urotensin-2 receptor (Homo sapiens, UniProt Q9UKP6); assay: Binding affinity to human urotensin-2 receptor
T1 sequence (Q9UKP6 whole entry): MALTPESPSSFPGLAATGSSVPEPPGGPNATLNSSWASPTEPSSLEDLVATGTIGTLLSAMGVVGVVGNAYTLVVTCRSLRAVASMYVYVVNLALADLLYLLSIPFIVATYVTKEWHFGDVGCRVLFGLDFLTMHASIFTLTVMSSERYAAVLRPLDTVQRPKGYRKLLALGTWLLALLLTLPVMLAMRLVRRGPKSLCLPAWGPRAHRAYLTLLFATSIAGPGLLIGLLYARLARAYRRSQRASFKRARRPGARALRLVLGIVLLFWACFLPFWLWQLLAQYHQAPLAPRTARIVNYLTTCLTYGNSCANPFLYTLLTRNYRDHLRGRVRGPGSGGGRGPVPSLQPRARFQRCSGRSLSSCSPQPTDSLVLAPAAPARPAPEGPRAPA

[2] = (§1) Binding affinity to batrachotoxinin-sensitive rat brain sodium channel
Cytochrome P450 3A4 = Cytochrome P450 3A4 (Homo sapiens, UniProt P08684); assay: Inhibition of CYP3A4; type: ADME
Cytochrome P450 3A4, sequence (P08684 whole entry): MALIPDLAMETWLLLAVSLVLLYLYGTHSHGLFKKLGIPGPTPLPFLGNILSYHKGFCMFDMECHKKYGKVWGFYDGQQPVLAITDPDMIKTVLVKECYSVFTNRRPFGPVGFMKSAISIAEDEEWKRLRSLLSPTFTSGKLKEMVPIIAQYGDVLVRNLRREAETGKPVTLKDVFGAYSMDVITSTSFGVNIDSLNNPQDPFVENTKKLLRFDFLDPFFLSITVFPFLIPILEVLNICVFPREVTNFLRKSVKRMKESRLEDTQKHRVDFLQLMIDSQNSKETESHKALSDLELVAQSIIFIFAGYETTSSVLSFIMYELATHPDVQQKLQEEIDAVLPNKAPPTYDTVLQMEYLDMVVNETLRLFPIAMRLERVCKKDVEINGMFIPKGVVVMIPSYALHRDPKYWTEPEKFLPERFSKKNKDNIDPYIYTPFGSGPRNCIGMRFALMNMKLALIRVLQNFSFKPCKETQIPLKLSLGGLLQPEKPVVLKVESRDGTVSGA

[3] = Cmax in rat at 2 mg/kg, iv and 4 mg/kg, po; type: ADME, organism-based; details: in vivo
Cytochrome P450 2D6 = Cytochrome P450 2D6 (Homo sapiens, UniProt P10635); assay: Inhibition of CYP2D6; type: ADME
Cytochrome P450 2D6, sequence (P10635 whole entry): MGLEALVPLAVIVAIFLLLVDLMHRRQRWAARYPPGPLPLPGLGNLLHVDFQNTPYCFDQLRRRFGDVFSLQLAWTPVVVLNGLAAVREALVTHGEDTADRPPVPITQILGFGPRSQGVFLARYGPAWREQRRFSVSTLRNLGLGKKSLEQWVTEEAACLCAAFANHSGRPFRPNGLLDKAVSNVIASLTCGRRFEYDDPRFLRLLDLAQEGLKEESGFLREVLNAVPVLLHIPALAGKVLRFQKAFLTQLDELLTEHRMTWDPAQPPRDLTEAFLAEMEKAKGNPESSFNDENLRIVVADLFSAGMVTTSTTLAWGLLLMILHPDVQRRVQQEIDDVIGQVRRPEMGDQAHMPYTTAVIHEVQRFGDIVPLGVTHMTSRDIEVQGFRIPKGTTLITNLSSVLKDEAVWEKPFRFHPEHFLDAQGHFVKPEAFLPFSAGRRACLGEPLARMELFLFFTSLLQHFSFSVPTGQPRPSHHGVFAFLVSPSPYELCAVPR

[4] = Oral bioavailability in rat at 4 mg/kg; type: ADME, organism-based; details: in vivo
[5] = Half life in rat at 2 mg/kg, iv and 4 mg/kg, po; type: ADME, organism-based; details: in vivo
[6] = Clearance in rat at 2 mg/kg, iv and 4 mg/kg, po; type: ADME, organism-based; details: in vivo
[7] = Volume of distribution at steady state in rat at 2 mg/kg, iv and 4 mg/kg, po; type: ADME, organism-based; details: in vivo, read-out: Vdss
Aorta = assay: Inhibition of contraction in isolated rat aorta; type: functional
Rattus norvegicus = species on record: Rattus norvegicus; assay: as §1

Kappa-type opioid receptor, sequence (P41145 whole entry): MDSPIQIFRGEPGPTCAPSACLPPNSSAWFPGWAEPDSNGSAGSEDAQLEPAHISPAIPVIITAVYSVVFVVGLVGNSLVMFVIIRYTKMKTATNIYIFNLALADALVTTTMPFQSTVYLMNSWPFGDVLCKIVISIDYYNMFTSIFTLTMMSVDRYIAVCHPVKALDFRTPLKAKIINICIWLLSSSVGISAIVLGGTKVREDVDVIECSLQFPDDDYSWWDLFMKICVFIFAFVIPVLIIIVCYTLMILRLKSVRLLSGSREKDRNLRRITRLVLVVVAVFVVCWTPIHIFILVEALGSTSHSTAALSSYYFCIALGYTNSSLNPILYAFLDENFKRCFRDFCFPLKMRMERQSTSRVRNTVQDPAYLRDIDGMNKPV

| SMILES | EC50 [1] [nM] | Ki (Urotensin-2 receptor) [nM] | Ki [2] [nM] | IC50 (Cytochrome P450 3A4) [nM] | Cmax [3] [ng/mL] | IC50 (Cytochrome P450 2D6) [nM] | bioavailability [4] [%] | half-life [5] [h] | clearance [6] [mL/min/kg] | Vd [7] [L/kg] | Kb (Aorta) [nM] | Activity (Rattus norvegicus) |
| --- | --- | --- | --- | --- | --- | --- | --- | --- | --- | --- | --- | --- |
| CN(CC(=O)N(C)[C@@H](CN1CCCC1)c1ccccc1)c1ccc(Cl)c(Cl)c1 | 4 | 13 | 2000 | – | – | – | – | – | – | – | – | – |
| CN(C(=O)CN(CC#N)c1ccc(Cl)c(Cl)c1)C(CN1CCCC1)c1ccc(-c2cccc(C(N)=O)c2)cc1 (centres undefined) | 32 | 0.3 | 22000 | 2200 | 340 | 3500 | 36 | 3.4 | 100 | 20 | – | – |
| COc1cccc(-c2ccc(C(CN3CCOCC3)N(C)C(=O)CN3C(=O)COc4cc(Cl)c(Cl)cc43)cc2)c1 (centres undefined) | 160 | 5 | 22000 | 1000 | 290 | 17000 | 30 | 3.4 | 140 | 20 | 21 | – |
| CN(CC(=O)N(C)C(CN1CCOCC1)c1ccc(-c2ccccc2)cc1)c1ccc(Cl)c(Cl)c1 (centres undefined) | 1600 | 630 | > 300000 | 2100 | – | 16000 | – | – | – | – | – | – |
| CN(CC(=O)N1CCC[C@H](c2ccccc2)[C@@H]1CN1CCCC1)c1ccc(Cl)c(Cl)c1 | 6300 | 6 | – | – | – | – | – | – | – | – | – | – |
| CC(=O)Nc1ccc(-c2ccc(C(CN3CCOCC3)N(C)C(=O)CN3C(=O)COc4cc(C)c(C)cc43)cc2)cc1 (centres undefined) | 800 | 3 | 30000 | 6400 | 600 | 30000 | 83 | 1.7 | 94 | 2.8 | – | – |
| COCCN(CC(=O)N(C)C(CN1CCCC1)c1ccc(-c2ccc(C(N)=O)cc2)cc1)c1ccc(Cl)c(Cl)c1 (centres undefined) | 100 | 3 | 17000 | 2600 | – | 6200 | – | – | – | – | – | – |
| CN(C(=O)Cc1ccc(Cl)c(Cl)c1)[C@H](CN1CCCC1)c1ccccc1 [ICI-199,441] | – | 4000 | – | – | – | – | – | – | – | – | – | – |
| CN(CC(=O)N(C)C(CN1CCCC1)c1ccccc1)c1ccc(Cl)c(Cl)c1 (racemic) | 0.2 | 15 | – | 3300 | – | 160 | – | – | – | – | – | inactive |
| CNC(=O)c1cccc(-c2ccc(C(CN3CCOCC3)N(C)C(=O)Cn3c(=O)cnc4cc(C)c(C)cc43)cc2)c1 (centres undefined) | 4000 | 6 | 30000 | 9000 | – | 33000 | 39 | 1 | 60 | 1.7 | – | – |
| CN(C(=O)CN1C(=O)COc2cc(Cl)c(Cl)cc21)C(CN1CCOCC1)c1ccc(-c2ccccc2)cc1 (racemic) | 320 | 13 | 11100 | 4600 | 160 | 33000 | – | 2.4 | 150 | 23 | – | – |
| CN(CC(=O)N(C)C(CN1CCCC1)c1ccc(-c2ccccc2)cc1)c1ccc(Cl)c(Cl)c1 (centres undefined) | 16 | 20 | 1200 | 4900 | – | 5900 | – | – | – | – | – | – |
| CN(C(=O)CN1C(=O)COc2cc(Cl)c(Cl)cc21)[C@H](CN1CCOCC1)c1ccc(-c2ccccc2)cc1 | 40 | 630 | 9400 | 4200 | 230 | 33000 | 17 | 2.6 | 130 | 19 | – | – |
| CN(CC(=O)N(C)[C@H](CN1CCCC1)c1ccccc1)c1ccc(Cl)c(Cl)c1 | 0.1 | 2500 | – | – | – | – | – | – | – | – | – | – |
| CN(C(=O)CN1C(=O)COc2cc(Cl)c(Cl)cc21)[C@@H](CN1CCOCC1)c1ccc(-c2ccccc2)cc1 | 800 | 16 | 7700 | 9100 | 200 | 33000 | 43 | 2.2 | 120 | 11 | – | – |
| CN(CC(=O)N1CCC[C@@H](c2ccccc2)[C@H]1CN1CCCC1)c1ccc(Cl)c(Cl)c1 | 2000 | – | – | – | – | – | – | – | – | – | – | – |
| CN(CC(=O)N1CCCC(c2ccccc2)C1CN1CCCC1)c1ccc(Cl)c(Cl)c1 (racemic) | – | – | 2500 | – | – | – | – | – | – | – | – | – |
| CNC(=O)c1cccc(-c2ccc(C(CN3CCOCC3)N(C)C(=O)Cn3c(=O)cnc4cc(Cl)c(Cl)cc43)cc2)c1 (centres undefined) | 2000 | 4 | 30000 | 5000 | 1100 | 33000 | 29 | 1.5 | 36 | 2 | – | – |
